Where a name gives a salt, the structure may show the parent alone.
Legend:
Assay type in all cases: cell-based, mouse
[1] = system: HP1-mediated gene repression; experiment: UNC2524 structure-activity relationship assay, CiA:Oct4 N118/N163 flow cytometry; details: 10 μM, 48 hrs
Procedure: Day 0, CiA:Oct4 N118/163 cells were grown in ES media and seeded at a density of 10,000 cells per well (100,000 cells/mL) into gelatin coated 96 well plates. Day 1, media was aspirated and replaced with 100 μL fresh ES media containing +/−6 nM rapamycin and 10 μM of each compound derived for SAR. Day 2, culture media was aspirated away and […] fresh ES media containing +/−6 nM rapamycin and 10 μM of compounds were added as on Day 1. Day 3, the media was aspirated out of the wells and the cells were washed with PBS and trypsinized using 0.25% trypsin-EDTA. Trypsin was quenched with serum. Cells were resuspended by pipetting to prepare the plates for flow cytometry analysis as described above.
Compounds 2-8 were chemically synthesized from UNC2524 (compound 1) (FIG. 10A). To ascertain the biological activity of these chemical derivatives, CiA:Oct4 N118/N163 cells were used. Cells were treated with rapamycin plus compounds 2 and 5-8 for 48-hours prior to analysis by flow cytometry. Compound activity was confirmed by an increase in % inhibition compared to control samples. Compounds 5 and 6 added a pentenal chain and BOC group to the piperidine ring while compound 7 substituted a hexyl chain for the pyrrolidine. […] Further, it was identified that the 7-methoxy side chain was amenable to modification with a benzene ring in compound 8, while preserving most of the biological activity (˜51%).
Referring to FIG. 10A, a series of compounds derived from compound 1 (UNC2524) were designed to optimize compound activity and determine amenability of compounds for affinity purification methods. Referring to FIG. 10B, CiA:Oct4 N118/N163 cells were treated with SAR compounds at 10 μM for 48 hrs+/−6 nM rapamycin. Flow cytometry analysis was used to determine the % GFP (+) population. […] (p≤0.05*, 0.01**).

[2] = system: H3K9me3; experiment: ChIP-qPCR at CiA:Oct4 locus, TSS+489; details: 48 hr, + 6 nM rapamycin, 489 bp downstream of TSS
Procedure: 10-15 cm plates of cells grown to confluence were washed with PBS and trypsinized 10 min with 0.25% trypsin-EDTA. ES media was added to quench the trypsin, and cells were resuspended prior to counting using a Countess II Automated Cell Counter (ThermoFisher). Cell suspension was centrifuged at 300×g for 5 min. Cell pellet was washed with PBS and pelleted at 300×g for 5 min. Cells were resuspended and crosslinked with 1% formaldehyde for 10 min. 2.5 M glycine (0.125 M final) was added and samples were put on ice to stop the crosslinking. […]
Enrichment of ChIP DNA was determined by qPCR. […] Samples were analyzed using the comparative ΔΔCt method and normalized against an intergenic control region (Hathaway et al., 2012; Livak & Schmittgen, 2001). […]
Chromatin immunoprecipitation (ChIP) was used to determine the levels of H3K9me3 at the Oct4 locus upon treatment with compound 2. […] For this reason, the levels of H3K9me3 were analyzed at 489 bp downstream of the TSS in all four sample conditions. qPCR was used to amplify this region in addition to an intergenic control region. […]
(§1) Referring to FIG. 11A, CiA:Oct4 csHP1α recruiting cells were incubated with 7.5 μM compound 2+/−6 nM rapamycin for 48 hrs and representative brightfield and GFP fluorescence images were acquired at 20×. […] GFP expression was analyzed by flow cytometry. […]

[3] = system: HP1γ; experiment: ChIP-qPCR at CiA:Oct4 locus, TSS+489
Procedure: (§2) 10-15 cm plates of cells grown to confluence were washed with PBS and trypsinized 10 min with 0.25% trypsin-EDTA. ES media was added to quench the trypsin, and cells were resuspended prior to counting using a Countess II Automated Cell Counter (ThermoFisher). Cell suspension was centrifuged at 300×g for 5 min. Cell pellet was washed with PBS and pelleted at 300×g for 5 min. Cells were resuspended and crosslinked with 1% formaldehyde for 10 min. 2.5 M glycine (0.125 M final) was added and samples were put on ice to stop the crosslinking. Nuclei were isolated by incubating cells on ice for 10 min in CiA NP Rinse 1 (50 mM HEPES pH 8.0, 140 mM NaCl, 1 mM EDTA, 10% glycerol, 0.5% NP40, 0.25% Triton X100). Nuclei were pelleted at 1200×g for 5 min at 4° C. and resuspended in CiA NP Rinse 2 (10 mM Tris pH 8.0, 1 mM EDTA, 0.5 mM EGTA, 200 mM NaCl). Nuclei were pelleted at 1200×g for 5 min at 4° C. Nuclei were resuspended in shearing buffer (0.1% SDS, 1 mM EDTA pH 8, 10 mM Tris HCl, pH 8) and sonicated for 5 min using a Covaris sonicator (Hathaway et al., 2012). Input DNA and ChIP DNA was isolated according to Active Motif High Sensitivity ChIP-IT kit procedure. ChIP for H3K9me3 used Abcam (ab8898) primary antibody.
(§3) Enrichment of ChIP DNA was determined by qPCR. 384-well PCR plates contained 2 μL of template DNA and 8 μL of reaction mix of primers and FastStart Universal SYBR Green 2× master mix (Roche). Samples were run on a ViiA7 Real-Time PCR system (Applied Biosystems) (Pattenden et al., 2016). Plates were setup in technical duplicate or triplicate. Samples were analyzed using the comparative ΔΔCt method and normalized against an intergenic control region (Hathaway et al., 2012; Livak & Schmittgen, 2001). Experiment was performed in a minimum biological triplicate and data is representative of sample average. T-test were used to determine significant p-values.
(§4) To further characterize the effects of compound 2 on the HP1-heterochromatin pathway, perturbations in the levels of HP1γ, H3K4me3, and G9a at the CiA:Oct4 locus were assayed for using ChIP followed by […] analysis. Enrichment levels were determined at 489 bp downstream of the TSS and normalized to a house-keeping gene, intracisternal A-type particles (IAP). As shown previously, HP1γ functions similarly to HP1α in our inhibition assay. […] No change in H3K4me3 levels were detected upon compound 2 treatment despite the decrease in H3K9me3 (FIG. 11E). […]
as §1

[4] = system: H3K4me3; experiment: ChIP-qPCR at CiA:Oct4 locus, TSS+489; details: 48 hr treatment, +/- rapamycin
Procedure: as §2, §3, §4, §1

[5] = system: G9a; experiment: ChIP-qPCR at CiA:Oct4 locus, TSS+489; details: four treatment conditions
Procedure: as §2, §3, §4, §1

[6] = system: CiA:Oct4 N118/N163 cells; experiment: Compound 2 activity and fluorescence microscopy; details: 7.5 μM, 48 hrs
Procedure: Day 0, CiA:Oct4 N118/N163 cells were plated into 96 well plate and 10 or 15 cm plate formats. Day 1, media was aspirated and replaced with fresh ES media +/−7.5 μM compound 2+/−6 nM rapamycin. Day 2, media was aspirated and replaced with fresh ES media +/−7.5 μM compound 2+/−6 nM rapamycin. Day 3, media was removed from 96 well plate and cells were washed with PBS prior to trypsinization and flow cytometry analysis as described above to confirm functional inhibition of compound 2.
Prior to imaging, ES media was removed from 10-15 cm plates and replaced with PBS to decrease background fluorescence. Cells were imaged using an Olympus IX71 microscope analyzed using Cellsens software. Representative images were taken in 2 random plate locations for each of the four conditions. Image levels were normalized using Adobe Photoshop.
In order to confirm that compound 2 was inhibiting H3K9me3 deposition, CiA:Oct4 N118/N163 cells were grown for 48-hours with rapamycin mediating HP1 recruitment, +/−compound 2 (FIG. 11G). Representative brightfield and fluorescence images were taken for the four sample types ((−) rapamycin/(−) compound 2, (−) rapamycin/(+) compound 2, (+) rapamycin/(−) compound 2, (+) rapamycin/(+) compound 2). […] Subsequently, all samples were analyzed by flow cytometry to confirm the inhibitory effects of compound 2 on HP1-mediated gene repression. […]

## COc1cc2nc(N3CCCC3)nc(N[C@@H]3CCCNC3)c2cc1OC [compound 2, (R)-6,7-Dimethoxy-N-(Piperidin-3-yl)-2-(Pyrrolidin-1-yl)Quinazolin-4-Amine Trifluoroacetic Acid Salt]
[1]; + 6 nM rapamycin
  % inhibition compared with parent compound 1: increase in activity over the parent
[2]
  Decrease of H3K9me3 enrichment compared to plus rapamycin control: ~9 fold
[3]; compound alone, no HP1 recruitment
  Increase of HP1γ levels compared to controls: 46%
[3]; with HP1 recruitment (rapamycin)
  Decrease of HP1γ levels compared to HP1 recruitment alone: 37%
[4]
  Change in H3K4me3 levels: No change
[5]
  Change in G9a levels: No significant changes
[6]; +/- 6 nM rapamycin
  ES cell differentiation and colony morphology: did not result in gross cell differentiation or effect colony morphology
[6]; with and without rapamycin
  GFP expression by flow cytometry compared to untreated controls: increased GFP expression

## C=CCCCN1CCC[C@H](Nc2nc(N3CCCC3)nc3cc(OC)c(OC)cc23)C1 [compound 5, (S)-6,7-Dimethoxy-N-(1-(Pent-4-en-1-yl)Piperidin-3-yl)-2-(Pyrrolidin-1-yl)Quinazolin-4-Amine, Trifluoroacetic Acid Salt]
[1]; + 6 nM rapamycin
  % inhibition compared with parent compound 1: decrease in inhibition

## COc1cc2nc(N3CCCC3)nc(N[C@@H]3CCCN(C(=O)OC(C)(C)C)C3)c2cc1OC [compound 6, Tert-Butyl (R)-3-((6,7-Dimethoxy-2-(Pyrrolidin-1-yl)Quinazolin-4-yl)Amino)Piperidine-1-Carboxylate]
[1]; + 6 nM rapamycin
  % inhibition compared with parent compound 1: decrease in inhibition

## CCCCCCNc1nc(N[C@H]2CCCNC2)c2cc(OC)c(OC)cc2n1 [compound 7, (S)—N^2-Hexyl-6,7-Dimethoxy-N^4-(Piperidin-3-yl)Quinazoline-2,4-Diamine]
[1]
  Toxicity in SAR assay: toxicity and low cell counts
[1]; + 6 nM rapamycin
  % inhibition compared with parent compound 1: decrease in inhibition

## COc1cc2c(N[C@H]3CCCNC3)nc(N3CCCC3)nc2cc1OCCCN1CCCCC1 [compound 8, (S)-6-Methoxy-7-(3-(Piperidin-1-yl)Propoxy)-N-(Piperidin-3-yl)-2-(Pyrrolidin-1-yl)Quinazolin-4-Amine Trifluoroacetic Acid Salt]
[1]; + 6 nM rapamycin
  Biological activity preserved: ~51%

From patent publication US11254654B2, “Heterochromatin gene repression inhibitors” (The University of North Carolina at Chapel Hill, priority 2017, dated 2022)
